Reference: patent US20230167088A1, “1-PYRAZINYLPYRAZOLYL-3-OXYALKYL ACIDS AND THEIR DERIVATIVES, AND THEIR USE FOR CONTROL OF UNDESIRED PLANT GROWTH” (BAYER AKTIENGESELLSCHAFT, priority 2020, published 2023)

Key:
[1] = system: ALOMY; assay: Herbicidal post-emergence action 1a (greenhouse pots, visual rating); type: in vivo, Alopecurus myosuroides; details: rated visually about 3 weeks after treatment, 100% = plants have died, 0% = like control plants
Method in brief: (§1)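 Weeds and crops sown in sandy loam in greenhouse pots were sprayed post-emergence at the one-leaf stage (2–3 weeks after sowing) with WP or EC formulations plus 0.5% additive at 600 l/ha water, 320 and/or 80 g/ha. About 3 weeks later damage was rated visually against untreated controls (0% = no effect, 100% = dead).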

[2] = system: AVEFA; assay: as above; type: in vivo, Avena fatua; details: rated visually about 3 weeks after treatment, 100% = plants have died, 0% = like control plants
Method in brief: as §1

[3] = system: ECHCG; assay: as above; type: in vivo, Echinochloa crus-galli; details: rated visually about 3 weeks after treatment, 100% = plants have died, 0% = like control plants
Method in brief: as §1

[4] = system: LOLRI; assay: as above; type: in vivo, Lolium rigidum; details: rated visually about 3 weeks after treatment, 100% = plants have died, 0% = like control plants
Method in brief: as §1

[5] = system: SETVI; assay: as above; type: in vivo, Setaria viridis; details: rated visually about 3 weeks after treatment, 100% = plants have died, 0% = like control plants
Method in brief: as §1

[6] = system: AMARE; assay: as above; type: in vivo, Amaranthus retroflexus; details: visual rating about 3 weeks after treatment
Method in brief: as §1

[7] = system: MATIN; assay: as above; type: in vivo, Matricaria inodora; details: visual rating about 3 weeks after treatment
Method in brief: as §1

[8] = system: PHBPU; assay: as above; type: in vivo, Pharbitis purpurea; details: visual rating about 3 weeks after treatment
Method in brief: as §1

[9] = system: POLCO; assay: as above; type: in vivo, Polygonum convolvulus; details: visual rating about 3 weeks after treatment
Method in brief: as §1

[10] = system: VERPE; assay: as above; type: in vivo, Veronica persica; details: visual rating about 3 weeks after treatment
Method in brief: as §1

[11] = system: ALOMY; assay: Herbicidal pre-emergence action 2a (greenhouse pots, visual scoring); type: in vivo, Alopecurus myosuroides; details: dosage 320 g/ha, visual scoring after about 3 weeks
Method in brief: (§2)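 Dose levels were 320 g/ha and/or 80 g/ha, delivered as an aqueous spray of wettable powder or emulsion concentrate plus 0.5% additive onto soil over sown seeds. Plants grew under good greenhouse conditions for about 3 weeks before visual percentage rating versus untreated pots.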

[12] = system: AVEFA; assay: as above; type: in vivo, Avena fatua; details: dosage 320 g/ha, visual scoring after about 3 weeks
Method in brief: as §2

[13] = system: ECHCG; assay: as above; type: in vivo, Echinochloa crus-galli; details: dosage 320 g/ha, visual scoring after about 3 weeks
Method in brief: as §2

[14] = system: LOLRI; assay: as above; type: in vivo, Lolium rigidum; details: dosage 320 g/ha, visual scoring after about 3 weeks vs untreated controls
Method in brief: as §2

[15] = system: SETVI; assay: as above; type: in vivo, Setaria viridis; details: dosage 320 g/ha, visual scoring after about 3 weeks vs untreated controls
Method in brief: as §2

[16] = system: ABUTH; assay: as above; type: in vivo, Abutilon theophrasti; details: dosage 320 g/ha, visual scoring after about 3 weeks vs untreated controls
Description: [table] a) Seeds of monocotyledonous and dicotyledonous weed plants and crop plants are placed in plastic or organic plant pots and covered with soil. The compounds of the invention, formulated in the form of wettable powders (WP) or as emulsion concentrates (EC), are then applied onto the surface of the covering soil as aqueous suspension or emulsion with addition of 0.5% additive at a water application rate of 600 1/ha (converted). After the treatment, the pots are placed in a greenhouse and kept under good growth conditions for the trial plants. After about 3 weeks, the effect of the preparations is scored visually in comparison with untreated controls as percentages. For example, 100% activity=the plants have died, 0% activity=like control plants. Tables B1 to B15 below show the effects of selected compounds of the general formula (I) according to Tables 1 and 2 on various harmful plants and an application rate corresponding to 320 g/ha and/or 80 g/ha, which were obtained by the experimental procedure mentioned above.

[17] = system: AMARE; assay: as above; type: in vivo, Amaranthus retroflexus; details: dosage 320 g/ha, visual scoring after about 3 weeks vs untreated controls
Method in brief: as §2

[18] = system: MATIN; assay: as above; type: in vivo, Matricaria inodora; details: dosage 320 g/ha, visual scoring after about 3 weeks vs untreated controls
Method in brief: as §2

[19] = system: PHBPU; assay: as above; type: in vivo, Pharbitis purpurea; details: dosage 320 g/ha, visual scoring after about 3 weeks vs untreated controls
Method in brief: as §2

[20] = system: POLCO; assay: as above; type: in vivo, Polygonum convolvulus; details: dosage 320 g/ha, visual scoring after about 3 weeks vs untreated controls
Method in brief: as §2

[21] = system: VERPE; assay: as above; type: in vivo, Veronica persica; details: dosage 320 g/ha, visual scoring after about 3 weeks vs untreated controls
Method in brief: as §2

[22] = system: ABUTH; assay: Herbicidal post-emergence action 1a (greenhouse pots, visual rating); type: in vivo, Abutilon theophrasti; details: visual rating about 3 weeks after treatment
Method in brief: as §1

CCOC(=O)[C@@H](C)Oc1nn(-c2cnccn2)c(-c2cncc(F)c2)c1Br [Example I-99]
Post-emergence action against ALOMY in % ([1]; Dosage 80 g/ha): 80% | Post-emergence action against ALOMY in % ([1]; Dosage 320 g/ha): 100% | Post-emergence action against AVEFA in % ([2]; Dosage 80 g/ha): 80% | Post-emergence action against AVEFA in % ([2]; Dosage 320 g/ha): 100% | Post-emergence action against ECHCG in % ([3]; Dosage 80 g/ha): 90% | Post-emergence action against ECHCG in % ([3]; Dosage 320 g/ha): 90% | Post-emergence action against LOLRI in % ([4]; Dosage 80 g/ha): 100% | Post-emergence action against LOLRI in % ([4]; Dosage 320 g/ha): 100% | Post-emergence action against SETVI in % ([5]; Dosage 80 g/ha): 90% | Post-emergence action against SETVI in % ([5]; Dosage 320 g/ha): 90% | Post-emergence action against AMARE in % ([6]; dosage 80 g/ha): 90% | Post-emergence action against AMARE in % ([6]; dosage 320 g/ha): 90% | Post-emergence action against MATIN in % ([7]; dosage 80 g/ha): 80% | Post-emergence action against MATIN in % ([7]; dosage 320 g/ha): 90% | Post-emergence action against PHBPU in % ([8]; dosage 80 g/ha): 80% | Post-emergence action against PHBPU in % ([8]; dosage 320 g/ha): 90% | Post-emergence action against POLCO in % ([9]; dosage 80 g/ha): 80% | Post-emergence action against POLCO in % ([9]; dosage 320 g/ha): 80% | Post-emergence action against VERPE in % ([10]; dosage 80 g/ha): 90% | Post-emergence action against VERPE in % ([10]; dosage 320 g/ha): 90% | Pre-emergence action against ALOMY in % [11]: 100% | Pre-emergence action against AVEFA in % [12]: 90% | Pre-emergence action against ECHCG in % [13]: 100% | Pre-emergence action against LOLRI in % [14]: 100% | Pre-emergence action against SETVI in % [15]: 100% | Pre-emergence action against ABUTH in % [16]: 90% | Pre-emergence action against AMARE in % [17]: 100% | Pre-emergence action against MATIN in % [18]: 100% | Pre-emergence action against PHBPU in % [19]: 90% | Pre-emergence action against POLCO in % [20]: 90% | Pre-emergence action against VERPE in % [21]: 100%

CCOC(=O)COc1nn(-c2cnccn2)c(-c2cncc(F)c2)c1Cl [Example I-91]
Post-emergence action against AVEFA in % ([2]; Dosage 320 g/ha): 90% | Post-emergence action against ECHCG in % ([3]; Dosage 320 g/ha): 90% | Post-emergence action against LOLRI in % ([4]; Dosage 320 g/ha): 90% | Post-emergence action against SETVI in % ([5]; Dosage 80 g/ha): 80% | Post-emergence action against SETVI in % ([5]; Dosage 320 g/ha): 90% | Post-emergence action against ABUTH in % ([22]; dosage 80 g/ha): 80% | Post-emergence action against ABUTH in % ([22]; dosage 320 g/ha): 80% | Post-emergence action against AMARE in % ([6]; dosage 80 g/ha): 80% | Post-emergence action against AMARE in % ([6]; dosage 320 g/ha): 90% | Post-emergence action against PHBPU in % ([8]; dosage 320 g/ha): 90% | Post-emergence action against POLCO in % ([9]; dosage 80 g/ha): 80% | Post-emergence action against POLCO in % ([9]; dosage 320 g/ha): 80% | Post-emergence action against VERPE in % ([10]; dosage 80 g/ha): 80% | Post-emergence action against VERPE in % ([10]; dosage 320 g/ha): 80% | Pre-emergence action against ALOMY in % [11]: 80% | Pre-emergence action against AVEFA in % [12]: 90% | Pre-emergence action against ECHCG in % [13]: 100% | Pre-emergence action against LOLRI in % [14]: 100% | Pre-emergence action against SETVI in % [15]: 100% | Pre-emergence action against ABUTH in % [16]: 90% | Pre-emergence action against AMARE in % [17]: 100% | Pre-emergence action against MATIN in % [18]: 100% | Pre-emergence action against PHBPU in % [19]: 90% | Pre-emergence action against POLCO in % [20]: 90% | Pre-emergence action against VERPE in % [21]: 90%
